Data: ChEMBL document CHEMBL1201862, “PubChem BioAssay data set” (2004)
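Protocol summary: plate cells (96-well), add compound at 5 concentrations, incubate 48 h, interpolate endpoints linearly. The concentration for 50% growth inhibition is given as GI50.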 Calls of active or inactive are those of the source. Cut-off read from the data, not from the text of the source: active = GI50 up to about 1.1 µM and inactive = higher.

Assays:
Experiment in all cases: growth of human tumour cells (NCI), 48 h
[1] = test system: SK-OV-3
[2] = test system: UACC-257
[3] = test system: NCI-H226
[4] = test system: TK-10
[5] = test system: EKVX
[6] = test system: SF-295
[7] = test system: HT-29
[8] = test system: CAKI-1
[9] = test system: PC-3
[10] = test system: UACC-62
[11] = test system: ACHN
[12] = test system: SR
[13] = test system: SW-620
[14] = test system: UO-31
[15] = test system: RPMI-8226
[16] = test system: SN12C
[17] = test system: SK-MEL-5
[18] = test system: KM12
[19] = test system: K562
[20] = test system: U-251
[21] = test system: HCT-116
[22] = test system: SK-MEL-28
[23] = test system: DU-145
[24] = test system: OVCAR-4
[25] = test system: NCI-H522
[26] = test system: HOP-62
[27] = test system: MCF7
[28] = test system: 786-0
[29] = test system: MDA-N
[30] = test system: SK-MEL-2
[31] = test system: A549
[32] = test system: OVCAR-8
[33] = test system: OVCAR-5
[34] = test system: SNB-19
[35] = test system: SF-268
[36] = test system: SNB-75
[37] = test system: HL-60
[38] = test system: OVCAR-3
[39] = test system: T47D
[40] = test system: HCT-15
[41] = test system: BT-549
[42] = test system: NCI/ADR-RES
[43] = test system: LOX IMVI
[44] = test system: CCRF-CEM
[45] = test system: Hs-578T
[46] = test system: MOLT-4
[47] = test system: MDA-MB-435
[48] = test system: COLO 205
[49] = test system: M14
[50] = test system: SF-539
[51] = test system: MDA-MB-231
[52] = test system: RXF 393
[53] = test system: IGROV-1
[54] = test system: NCI-H460

## Cc1ccc(S(=O)(=O)N(CCN2C(=O)c3ccccc3C2=O)c2cc3c4c(c2)Oc2cc(N(CCN5C(=O)c6ccccc6C5=O)S(=O)(=O)c5ccc(C)cc5)cc5c2C4(C)c2c(cc(N(CCN4C(=O)c6ccccc6C4=O)S(=O)(=O)c4ccc(C)cc4)cc2O5)O3)cc1
[1]
  GI50: > 100 µM (inactive)
[2]
  GI50: > 100 µM (inactive)
[3]
  GI50: > 100 µM (inactive)
[4]
  GI50: > 100 µM (inactive)
[5]
  GI50: > 100 µM (inactive)
[6]
  GI50: > 100 µM (inactive)
[7]
  GI50: > 100 µM (inactive)
[8]
  GI50: > 100 µM (inactive)
[9]
  GI50: > 100 µM (inactive)
[10]
  GI50: > 100 µM (inactive)
[11]
  GI50: > 100 µM (inactive)
[12]
  GI50: > 100 µM (inactive)
[13]
  GI50: > 100 µM (inactive)
[14]
  GI50: > 100 µM (inactive)
[15]
  GI50: > 100 µM (inactive)
[16]
  GI50: > 100 µM (inactive)
[17]
  GI50: > 100 µM (inactive)
[18]
  GI50: > 100 µM (inactive)
[19]
  GI50: > 100 µM (inactive)
[20]
  GI50: > 100 µM (inactive)
[21]
  GI50: > 100 µM (inactive)
[22]
  GI50: > 100 µM (inactive)
[23]
  GI50: > 100 µM (inactive)
[24]
  GI50: > 100 µM (inactive)
[25]
  GI50: > 100 µM (inactive)
[26]
  GI50: > 100 µM (inactive)
[27]
  GI50: > 100 µM (inactive)
[28]
  GI50: > 100 µM (inactive)
[29]
  GI50: > 100 µM (inactive)
[30]
  GI50: > 100 µM (inactive)
[31]
  GI50: > 100 µM (inactive)
[32]
  GI50: > 100 µM (inactive)
[33]
  GI50: > 100 µM (inactive)
[34]
  GI50: > 100 µM (inactive)
[35]
  GI50: > 100 µM (inactive)
[36]
  GI50: > 100 µM (inactive)
[37]
  GI50: > 100 µM (inactive)
[38]
  GI50: > 100 µM (inactive)
[39]
  GI50: > 100 µM (inactive)
[40]
  GI50: > 100 µM
[41]
  GI50: > 100 µM (inactive)
[42]
  GI50: > 100 µM (inactive)
[43]
  GI50: > 100 µM (inactive)
[44]
  GI50: > 100 µM (inactive)
[45]
  GI50: > 100 µM (inactive)
[46]
  GI50: > 100 µM (inactive)
[47]
  GI50: > 100 µM (inactive)
[48]
  GI50: > 100 µM (inactive)
[49]
  GI50: 35.7 µM (inactive)
[50]
  GI50: > 100 µM (inactive)
[51]
  GI50: 4.89 µM (inactive)
[52]
  GI50: > 100 µM (inactive)
[53]
  GI50: 57.3 µM (inactive)
[54]
  GI50: > 100 µM (inactive)
